Laboratory results as given in patent US9446061B2, “Composition containing antibiotics and lysophosphatidylcholine for boosting immunity or treatment of bacterial infections” (priority 2011, dated 2016).

System: CPA-CLP sepsis mouse model
Test: Effects of LPC concentrations on mortalities/survivabilities in CPA-CLP sepsis mouse model (SEP008); s.c. 4 times 12-hr intervals from 6 hrs after CLP
Type: in vivo, ICR mice
Method: CPA is well known as an immunosuppressive agent. […] Then, the abdomen was closed following the general procedure.
Then, body weight and mortality changes were observed.
In the Sham and CLP control groups, 10 ml/kg of only 5% human serum albumin was subcutaneously dosed at the same intervals.

With Lysophosphatidylcholine [LPC] the minimal effective dose (CPA-CLP model) was “about 1 mg/kg”, the optimal effective dose (CPA-CLP model) was 10 mg/kg and the Mortalities (LPC 1 mpk, 1st CPA treat) was 0/10. For the same substance, the survivabilities (LPC 1 mpk, 1st CPA treat) was 100%, the Mortalities (LPC 1 mpk, 2nd CPA treat) was 0/10 and the survivabilities (LPC 1 mpk, 2nd CPA treat) was 100%. The Mortalities (LPC 1 mpk, At CLP (day 0)) was 0/10, the survivabilities (LPC 1 mpk, At CLP (day 0)) was 100% and the Mortalities (LPC 1 mpk, Day 1) was 4/10. The survivabilities (LPC 1 mpk, Day 1) was 60%, the Mortalities (LPC 1 mpk, Day 2) was 2/6 and the survivabilities (LPC 1 mpk, Day 2) was 40%. For the same substance, the Mortalities (LPC 1 mpk, Day 3) was 2/4, the survivabilities (LPC 1 mpk, Day 3) was 20% and the Mortalities (LPC 1 mpk, Day 4) was 2/2. For the same substance, the survivabilities (LPC 1 mpk, Day 4) was 0%, the Mortalities (LPC 1 mpk, Day 5) was 0/0 and the survivabilities (LPC 1 mpk, Day 5) was 0%. The Mortalities (LPC 1 mpk, Day 6) was 0/0, the survivabilities (LPC 1 mpk, Day 6) was 0% and the Mortalities (LPC 1 mpk, Day 7) was 0/0. The survivabilities (LPC 1 mpk, Day 7) was 0%, the Mortalities (LPC 1 mpk, Total) was 10/10 and the survivabilities (LPC 1 mpk, Total) was 0%. For the same substance, the Mortalities (LPC 2.5 mpk, 1st CPA treat) was 0/10, the survivabilities (LPC 2.5 mpk, 1st CPA treat) was 100% and the Mortalities (LPC 2.5 mpk, 2nd CPA treat) was 0/10. For the same substance, the survivabilities (LPC 2.5 mpk, 2nd CPA treat) was 100%, the Mortalities (LPC 2.5 mpk, At CLP (day 0)) was 0/10 and the survivabilities (LPC 2.5 mpk, At CLP (day 0)) was 100%. For the same substance, the Mortalities (LPC 2.5 mpk, Day 1) was 2/10, the survivabilities (LPC 2.5 mpk, Day 1) was 80% and the Mortalities (LPC 2.5 mpk, Day 2) was 2/8. For the same substance, the survivabilities (LPC 2.5 mpk, Day 2) was 60%, the Mortalities (LPC 2.5 mpk, Day 3) was 3/6 and the survivabilities (LPC 2.5 mpk, Day 3) was 30%. The Mortalities (LPC 2.5 mpk, Day 4) was 2/3, the survivabilities (LPC 2.5 mpk, Day 4) was 10% and the Mortalities (LPC 2.5 mpk, Day 5) was 1/1. The survivabilities (LPC 2.5 mpk, Day 5) was 0%, the Mortalities (LPC 2.5 mpk, Day 6) was 0/0 and the survivabilities (LPC 2.5 mpk, Day 6) was 0%. For the same substance, the Mortalities (LPC 2.5 mpk, Day 7) was 0/0, the survivabilities (LPC 2.5 mpk, Day 7) was 0% and the Mortalities (LPC 2.5 mpk, Total) was 10/10. The survivabilities (LPC 2.5 mpk, Total) was 0%, the Mortalities (LPC 5 mpk, 1st CPA treat) was 0/10 and the survivabilities (LPC 5 mpk, 1st CPA treat) was 100%. For the same substance, the Mortalities (LPC 5 mpk, 2nd CPA treat) was 0/10, the survivabilities (LPC 5 mpk, 2nd CPA treat) was 100% and the Mortalities (LPC 5 mpk, At CLP (day 0)) was 0/10. The survivabilities (LPC 5 mpk, At CLP (day 0)) was 100%, the Mortalities (LPC 5 mpk, Day 1) was 4/10 and the survivabilities (LPC 5 mpk, Day 1) was 60%. The Mortalities (LPC 5 mpk, Day 2) was 1/6, the survivabilities (LPC 5 mpk, Day 2) was 50% and the Mortalities (LPC 5 mpk, Day 3) was 1/5. For the same substance, the survivabilities (LPC 5 mpk, Day 3) was 40%, the Mortalities (LPC 5 mpk, Day 4) was 1/4 and the survivabilities (LPC 5 mpk, Day 4) was 30%. The Mortalities (LPC 5 mpk, Day 5) was 0/3, the survivabilities (LPC 5 mpk, Day 5) was 30% and the Mortalities (LPC 5 mpk, Day 6) was 2/3. For the same substance, the survivabilities (LPC 5 mpk, Day 6) was 10%, the Mortalities (LPC 5 mpk, Day 7) was 1/1 and the survivabilities (LPC 5 mpk, Day 7) was 0%. The Mortalities (LPC 5 mpk, Total) was 10/10, the survivabilities (LPC 5 mpk, Total) was 0% and the Mortalities (LPC 10 mpk, 1st CPA treat) was 0/10. The survivabilities (LPC 10 mpk, 1st CPA treat) was 100%, the Mortalities (LPC 10 mpk, 2nd CPA treat) was 0/10 and the survivabilities (LPC 10 mpk, 2nd CPA treat) was 100%. The Mortalities (LPC 10 mpk, At CLP (day 0)) was 0/10, the survivabilities (LPC 10 mpk, At CLP (day 0)) was 100% and the Mortalities (LPC 10 mpk, Day 1) was 1/10. The survivabilities (LPC 10 mpk, Day 1) was 90%, the Mortalities (LPC 10 mpk, Day 2) was 2/9 and the survivabilities (LPC 10 mpk, Day 2) was 70%. The Mortalities (LPC 10 mpk, Day 3) was 1/7, the survivabilities (LPC 10 mpk, Day 3) was 60% and the Mortalities (LPC 10 mpk, Day 4) was 1/6. The survivabilities (LPC 10 mpk, Day 4) was 50%, the Mortalities (LPC 10 mpk, Day 5) was 1/5 and the survivabilities (LPC 10 mpk, Day 5) was 40%. For the same substance, the Mortalities (LPC 10 mpk, Day 6) was 2/4, the survivabilities (LPC 10 mpk, Day 6) was 20% and the Mortalities (LPC 10 mpk, Day 7) was 2/2. The survivabilities (LPC 10 mpk, Day 7) was 0%, the Mortalities (LPC 10 mpk, Total) was 10/10 and the survivabilities (LPC 10 mpk, Total) was 0%. The Mortalities (LPC 20 mpk, 1st CPA treat) was 0/10, the survivabilities (LPC 20 mpk, 1st CPA treat) was 100% and the Mortalities (LPC 20 mpk, 2nd CPA treat) was 0/10. For the same substance, the survivabilities (LPC 20 mpk, 2nd CPA treat) was 100%, the Mortalities (LPC 20 mpk, At CLP (day 0)) was 0/10 and the survivabilities (LPC 20 mpk, At CLP (day 0)) was 100%. The Mortalities (LPC 20 mpk, Day 1) was 1/10, the survivabilities (LPC 20 mpk, Day 1) was 90% and the Mortalities (LPC 20 mpk, Day 2) was 1/9. The survivabilities (LPC 20 mpk, Day 2) was 80%, the Mortalities (LPC 20 mpk, Day 3) was 2/8 and the survivabilities (LPC 20 mpk, Day 3) was 60%. For the same substance, the Mortalities (LPC 20 mpk, Day 4) was 2/6, the survivabilities (LPC 20 mpk, Day 4) was 40% and the Mortalities (LPC 20 mpk, Day 5) was 2/4. For the same substance, the survivabilities (LPC 20 mpk, Day 5) was 20%, the Mortalities (LPC 20 mpk, Day 6) was 0/2 and the survivabilities (LPC 20 mpk, Day 6) was 20%. For the same substance, the Mortalities (LPC 20 mpk, Day 7) was 2/2, the survivabilities (LPC 20 mpk, Day 7) was 0% and the Mortalities (LPC 20 mpk, Total) was 10/10. For the same substance, the survivabilities (LPC 20 mpk, Total) was 0% and the survival time (all the five doses of LPC in CPA-CLP mice) was “significantly increased”.
